For eight compounds, GI50 and TGI results are on record in PubChem BioAssay (NCI).

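All cell lines were grown in 96-well plates and treated with compound for 48 hours. GI50 is the concentration that inhibits growth by half. TGI: total growth inhibition.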 A value given as a limit tells only on which side of the number the result lay.

Some test systems named below: SNB-75 CNS; HL-60(TB) leukemia; BT-549 breast; MOLT-4 leukemia; UACC-257 melanoma; EKVX NSCLC; NCI-H522 lung; NCI-H226 lung; DU-145 prostate; UACC-62 melanoma.
Common to all, as to assay: NCI tumour cell line growth inhibition, 48 h

With `COc1ccc(-c2nc(C(=O)c3ccccc3)n(CC(=O)c3ccc(Cl)cc3)c2-c2ccc(OC)cc2)cc1`, the GI50 in the assay on SNB-75 CNS is more than 100 µM; in the assay on HL-60(TB) leukemia, 46 µM; with BT-549 breast, 85.6 µM; with MOLT-4 leukemia, more than 100 µM; in the assay with UACC-257 melanoma, more than 100 µM; in the assay on EKVX NSCLC it was more than 100 µM. Besides, the GI50 in the assay with NCI-H522 lung, with NCI-H226 lung, in the assay with DU-145 prostate and in the assay with UACC-62 melanoma was more than 100 µM each time. Further, the TGI with SNB-75 CNS, with HL-60(TB) leukemia, in the assay on BT-549 breast, with MOLT-4 leukemia, with UACC-257 melanoma and in the assay on EKVX NSCLC was more than 100 µM each time. For the same compound, the TGI with NCI-H522 lung, in the assay with NCI-H226 lung, with DU-145 prostate and in the assay with UACC-62 melanoma was more than 100 µM throughout.
In the case of `CNC(c1ccncc1)C(NC)c1ccncc1` (centres undefined), the TGI in the assay with SNB-75 CNS, in the assay on HL-60(TB) leukemia, with BT-549 breast, in the assay with MOLT-4 leukemia, in the assay on UACC-257 melanoma and in the assay on EKVX NSCLC was more than 100 µM each time. Also, the TGI in the assay with NCI-H522 lung, in the assay on NCI-H226 lung, in the assay with DU-145 prostate and with UACC-62 melanoma was more than 100 µM in each case.
As to `NS(=O)(=O)c1ccc(NC(=O)c2cccc(NC3=C(Cl)C(=O)N(Cc4ccccc4)C3=O)c2)cc1`, the GI50 was 19.4 µM in the assay on SNB-75 CNS; 2.02 µM in the assay on HL-60(TB) leukemia; 5.31 µM with BT-549 breast; 2.09 µM in the assay with MOLT-4 leukemia; 14.7 µM in the assay with UACC-257 melanoma; 17.6 µM in the assay on EKVX NSCLC. Moreover, the GI50 is 12.1 µM in the assay on NCI-H522 lung, 8.33 µM with NCI-H226 lung, 11.1 µM in the assay with DU-145 prostate and 9.05 µM in the assay with UACC-62 melanoma. Further, the TGI was determined as 45.3 µM in the assay on SNB-75 CNS; 6.01 µM with HL-60(TB) leukemia; 21.3 µM in the assay with BT-549 breast; 7.99 µM in the assay on MOLT-4 leukemia; 29.4 µM with UACC-257 melanoma; 38.8 µM in the assay on EKVX NSCLC. For the same compound, the TGI stood at 30.9 µM in the assay with NCI-H522 lung, 46.2 µM in the assay with NCI-H226 lung, 25.1 µM with DU-145 prostate and 22.9 µM in the assay on UACC-62 melanoma.
For `CCCOC(=O)C1C2CCC(O2)C1C(=O)O` (centres undefined), the TGI with SNB-75 CNS, with HL-60(TB) leukemia, in the assay with BT-549 breast, in the assay with MOLT-4 leukemia, with UACC-257 melanoma and in the assay with EKVX NSCLC was more than 100 µM in each case. Besides, the TGI in the assay on NCI-H522 lung, with NCI-H226 lung, with DU-145 prostate and in the assay with UACC-62 melanoma was more than 100 µM throughout.
On to `COc1cccc(NC2=C(Cl)C(=O)N(Cc3ccc(Cl)cc3)C2=O)c1`, for which the GI50 in the assay with SNB-75 CNS was 3.22 µM; in the assay with HL-60(TB) leukemia, 3.15 µM; in the assay on BT-549 breast, 0.655 µM; in the assay on MOLT-4 leukemia, 1.36 µM; with UACC-257 melanoma, 3.12 µM; in the assay on EKVX NSCLC, 12.5 µM. In addition, the GI50 in the assay on NCI-H522 lung is 4.76 µM; in the assay with NCI-H226 lung it was 1.27 µM; with DU-145 prostate, 3.8 µM; with UACC-62 melanoma, 1.97 µM. Further, the TGI is more than 100 µM in the assay with SNB-75 CNS; 60.8 µM with HL-60(TB) leukemia; 4.18 µM in the assay with BT-549 breast; more than 100 µM with MOLT-4 leukemia; 30.3 µM in the assay with UACC-257 melanoma; 38.8 µM in the assay on EKVX NSCLC. In addition, the TGI was 22.9 µM with NCI-H522 lung, 6.86 µM in the assay on NCI-H226 lung, 12.1 µM in the assay on DU-145 prostate and 18.3 µM in the assay on UACC-62 melanoma.
With `CN(C(=O)CNC(=O)/C=C/c1cccc(Cl)c1)C1CCS(=O)(=O)CC1`, the GI50 in the assay with SNB-75 CNS is 3.02 µM; in the assay with HL-60(TB) leukemia it was 2.07 µM; in the assay with BT-549 breast, 6.09 µM; in the assay with MOLT-4 leukemia, 2.12 µM; in the assay with UACC-257 melanoma, more than 100 µM; with EKVX NSCLC, 34.3 µM. Besides, the GI50 is 1.17 µM in the assay on NCI-H522 lung, 1.02 µM with NCI-H226 lung, 0.47 µM in the assay with DU-145 prostate and 0.986 µM in the assay with UACC-62 melanoma. Moreover, the TGI in the assay with SNB-75 CNS, in the assay with HL-60(TB) leukemia, with BT-549 breast, with MOLT-4 leukemia, with UACC-257 melanoma and in the assay with EKVX NSCLC was more than 100 µM each time. Further, the TGI in the assay on NCI-H522 lung, in the assay with NCI-H226 lung, with DU-145 prostate and with UACC-62 melanoma was more than 100 µM throughout.
Take `Cc1c(Cl)cccc1NC(=O)c1sc2nc3c(cc2c1N)CCCC3`: the GI50 was 0.282 µM in the assay with SNB-75 CNS; 0.305 µM with HL-60(TB) leukemia; 0.591 µM in the assay on BT-549 breast; 0.481 µM in the assay on MOLT-4 leukemia; 0.688 µM in the assay with UACC-257 melanoma; 0.64 µM with EKVX NSCLC. Moreover, the GI50 in the assay on NCI-H522 lung was 0.241 µM; in the assay on NCI-H226 lung, more than 100 µM; with DU-145 prostate it was 1.38 µM; with UACC-62 melanoma it was 0.6 µM. For the same compound, the TGI is more than 66.1 µM in the assay on SNB-75 CNS; more than 100 µM with BT-549 breast; more than 100 µM in the assay with MOLT-4 leukemia; more than 100 µM in the assay on UACC-257 melanoma; more than 100 µM in the assay with EKVX NSCLC; 0.812 µM in the assay on NCI-H522 lung. The TGI in the assay with NCI-H226 lung, in the assay with DU-145 prostate and in the assay with UACC-62 melanoma was more than 100 µM throughout.
For the compound `CCOC(=O)c1c(C)n(Cc2ccccc2)c2c1cc1oc(=O)c(=O)n3cnc2c13`, the GI50 in the assay on SNB-75 CNS is 28.5 µM; in the assay with HL-60(TB) leukemia it was 14.5 µM; in the assay on BT-549 breast, 16.2 µM; in the assay with MOLT-4 leukemia, 8.47 µM; in the assay on UACC-257 melanoma, 17 µM; in the assay on EKVX NSCLC, 13 µM. The GI50 was more than 50 µM in the assay on NCI-H522 lung, 20.3 µM in the assay with NCI-H226 lung, 11.8 µM with DU-145 prostate and 16.6 µM in the assay on UACC-62 melanoma. Also, the TGI was more than 50 µM in the assay on SNB-75 CNS; more than 50 µM in the assay with HL-60(TB) leukemia; 34.2 µM in the assay on BT-549 breast; more than 50 µM with MOLT-4 leukemia; 48.3 µM in the assay on UACC-257 melanoma; 39.7 µM in the assay on EKVX NSCLC. Moreover, the TGI with NCI-H522 lung, with NCI-H226 lung, in the assay with DU-145 prostate and in the assay on UACC-62 melanoma was more than 50 µM each time.
